Source: US20100104566A1, “ANTITUMOR COMBINATION COMPRISING A MORPHOLINYL ANTHRACYCLINE AND AN ANTIBODY” (NERVIANO MEDICAL SCIENCES S.R.L., priority 2007, published 2010)

Tested on: Human prostate carcinoma DU145 cells
Assay: In vivo antitumor efficacy of nemorubicin in combination with bevacizumab (tumor growth delay)
Parameters: species or system Balb Nu/Nu, male mice (athymic mice)
Conditions: DU145 s.c. in athymic mice; for Time to reach 1 g: advanced tumors, bevacizumab 20 mg/kg i.p. day 9, 13, 17, 21, 25, 29, nemorubicin 0.065 mg/kg i.v. day 9, 16, 23; for T-C: delay vs control to reach 1 g, bevacizumab 20 mg/kg i.p., nemorubicin 0.065 mg/kg i.v. q7dx3
Experimental: Materials and Methods: Balb Nu/Nu, male mice (athymic mice from Harlan, Italy) were maintained in cages with paper filter covers, food and bedding sterilized and water acidified. Human prostate carcinoma DU145 cells (from American Type Culture Collection) were implanted subcutaneously in athymic mice (2.5×10^6/cells mice). […] Drug treatments were performed on advanced tumors (when the tumors were palpable). Nemorubicin and bevacizumab were prepared immediately before use ad administered to mice in a volume of 10 ml/kg. Nemorubicin was administered as hydrochloride salt intravenously at a dose of 0.065 mg/kg and treatments were repeated weekly for 3 weeks. Bevacizumab was administered intraperitoneally at a dose of 20 mg/kg on the days 9, 13, 17, 21, 25 and 29 from the day of cell injection. When both compounds were administered on the same day, bevacizumab was administered intraperitoneally immediately before the intravenous injection of nemorubicin. Tumor growth and net body weight were evaluated every 3 days. Tumor growth was assessed by caliper. The two diameters were recorded, and the tumor weight was calculated according to the following formula: length (mm)×width^2 (mm)/2. The effect of the antitumor treatment was determined as the delay in the onset of an exponential growth of tumors [see for reference, Anti Cancer Drugs 7: 437-60, 1996]. This delay (T-C value) was defined as the difference of the time (in days) required for the treatment group (T) and the control group (C) tumors to reach a predetermined size (e.g. 1 g). Toxicity was evaluated on the basis of the body weight reduction.

Compound | Time to reach 1 g | T-C
COc1cccc2c1C(=O)c1c(O)c3c(c(O)c1C2=O)C[C@@](O)(C(=O)CO)C[C@@H]3O[C@H]1C[C@H](N2CCO[C@H](OC)C2)[C@H](O)[C@H](C)O1 [Nemorubicin, (8S-cis, 2″S)-7,8,9,10-tetrahydro-6,8,11-trihydroxy-8-(hydroxyacetyl)-1-methoxy-10-{[2,3,6-trideoxy-3-(2-methoxy-4-morpholinyl)-α-L-lyxo-hexopyranosyl]oxy}-5,12-naphthacenedione] | 18.95 days | 4.68 days
Bevacizumab: monoclonal antibody directed against the vascular endothelial growth factor (VEGF) | 21.31 days | 7.04 days
